Data from ChEMBL document CHEMBL1201862, “PubChem BioAssay data set” (2004).
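Step 1: Grow cells in 96-well plates. Step 2: Expose to compound for 48 hours at 5 concentrations. Step 3: Interpolate endpoints linearly; if unreached, use highest concentration. GI50 is the concentration that inhibits growth by half.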 Active and inactive are the calls of the source. Cut-off read from the data, not from the text of the source: active = GI50 up to about 1.1 µM and inactive = higher.

Experiments:
Assay in all cases: NCI tumour cell line growth inhibition, 48 h
COLO 205 = test system: COLO 205
K562 = test system: K562
LOX IMVI = test system: LOX IMVI
NCI-H460 = test system: NCI-H460
OVCAR-4 = test system: OVCAR-4
SF-539 = test system: SF-539
SK-MEL-5 = test system: SK-MEL-5
SK-OV-3 = test system: SK-OV-3
SN12C = test system: SN12C
SNB-75 = test system: SNB-75
SW-620 = test system: SW-620
TK-10 = test system: TK-10
U-251 = test system: U-251
UACC-257 = test system: UACC-257
M14 = test system: M14

Row | SMILES | GI50 (COLO 205) | GI50 (K562) | GI50 (LOX IMVI) | GI50 (NCI-H460) | GI50 (OVCAR-4) | GI50 (SF-539) | GI50 (SK-MEL-5) | GI50 (SK-OV-3) | GI50 (SN12C) | GI50 (SNB-75) | GI50 (SW-620) | GI50 (TK-10) | GI50 (U-251) | GI50 (UACC-257) | GI50 (M14)
1 | COc1ccc(/N=N/c2c(-c3ccccc3)nn(C(=O)CC(=O)Nc3ccc(OC)cc3)c2-c2ccccc2)cc1 | > 100 µM (inactive) | 27 µM (inactive) | > 100 µM (inactive) | > 100 µM (inactive) | > 100 µM (inactive) | 18.6 µM (inactive) | > 100 µM (inactive) | 40.6 µM (inactive) | > 100 µM (inactive) | 16 µM (inactive) | > 100 µM (inactive) | 52.7 µM (inactive) | 58.3 µM (inactive) | > 100 µM (inactive) | –
2 | C/C=C/C=C\C(=O)C1c2cccc(O)c2C(=O)c2c(O)cc(C)cc21 (stereo not drawn) | 1.64 µM (inactive) | 0.356 µM (active) | 1.79 µM (inactive) | 0.406 µM (active) | 1.7 µM (inactive) | 0.432 µM (active) | 1.39 µM (inactive) | 1.43 µM (inactive) | 2.33 µM (inactive) | 1.29 µM (inactive) | 1.19 µM (inactive) | 1.7 µM (inactive) | 0.446 µM (active) | 1.83 µM (inactive) | –
3 | NC(=O)CCC(Nc1c2ccccc2[n+]([O-])c2ccccc12)C(=O)O (stereo not drawn) | 49.1 µM (inactive) | 37.8 µM (inactive) | 49 µM (inactive) | 80 µM (inactive) | 84.1 µM (inactive) | – | 32 µM (inactive) | > 100 µM (inactive) | 71.8 µM (inactive) | 26.7 µM (inactive) | > 100 µM (inactive) | > 100 µM (inactive) | > 100 µM (inactive) | – | > 100 µM (inactive)
4 | C/C(=N\NS(=O)(=O)c1c(C)cc(C)cc1C)c1ccc[n+]([O-])n1 | – | 4.44 µM (inactive) | – | 30.7 µM (inactive) | 12.8 µM (inactive) | 13.6 µM (inactive) | 41.9 µM (inactive) | > 100 µM (inactive) | 14.9 µM (inactive) | 16.9 µM (inactive) | 8.05 µM (inactive) | – | 41.7 µM (inactive) | 10.3 µM (inactive) | 7.64 µM (inactive)
5 | COc1ccc2oc(C(=O)O)c3c2c1CCC3 | > 100 µM (inactive) | > 100 µM (inactive) | > 100 µM (inactive) | > 100 µM (inactive) | > 100 µM (inactive) | > 100 µM (inactive) | > 100 µM (inactive) | > 100 µM (inactive) | > 100 µM (inactive) | > 100 µM (inactive) | > 100 µM (inactive) | > 100 µM (inactive) | > 100 µM (inactive) | > 100 µM (inactive) | > 100 µM (inactive)
6 | CC(C)(C)[C@H]1CC[C@@](O)(c2ccccc2)CC1.CC(C)(C)[C@H]1CC[C@](O)(c2ccccc2)CC1 | 17.7 µM (inactive) | 15.2 µM (inactive) | 15.3 µM (inactive) | 27 µM (inactive) | – | 18.1 µM (inactive) | 14.8 µM (inactive) | 72.8 µM (inactive) | 18.8 µM (inactive) | 24.3 µM (inactive) | 3.74 µM (inactive) | 19.4 µM (inactive) | 16.3 µM (inactive) | 22.2 µM (inactive) | 18.2 µM (inactive)
7 | CC(Nc1ccc(S(=O)(=O)NC(=N)N)cc1)c1c2ccccc2nc2ccccc12 (stereo not drawn) | 57.7 µM (inactive) | 27.6 µM (inactive) | 28 µM (inactive) | 25.4 µM (inactive) | 10.1 µM (inactive) | 22.9 µM (inactive) | – | 26.4 µM (inactive) | 30 µM (inactive) | 26.8 µM (inactive) | 41.3 µM (inactive) | 47.4 µM (inactive) | 31.6 µM (inactive) | 35.3 µM (inactive) | 41 µM (inactive)
8 | COC(=O)CCC(NC(=S)N/N=C/c1cccs1)C(=O)OC (stereo not drawn) | > 100 µM (inactive) | > 100 µM (inactive) | > 100 µM (inactive) | > 100 µM (inactive) | > 100 µM (inactive) | > 100 µM (inactive) | > 100 µM (inactive) | > 100 µM (inactive) | > 100 µM (inactive) | > 100 µM (inactive) | > 100 µM (inactive) | > 100 µM (inactive) | > 100 µM (inactive) | > 100 µM (inactive) | > 100 µM (inactive)
9 | C1=Cc2nc1c(-c1ccccc1)c1ccc([n-]1)c(-c1ccccc1)c1nc(c(-c3ccccc3)c3ccc([n-]3)c2-c2ccccc2)C=C1.[Zn+2] | > 100 µM (inactive) | > 100 µM (inactive) | > 100 µM (inactive) | > 100 µM (inactive) | > 100 µM (inactive) | > 100 µM (inactive) | > 100 µM (inactive) | > 100 µM (inactive) | > 100 µM (inactive) | 67.5 µM (inactive) | > 100 µM (inactive) | > 100 µM (inactive) | > 100 µM (inactive) | > 100 µM (inactive) | > 100 µM (inactive)
10 | CC(C)(C)C1CCN(C(=O)c2ccccc2)CC1 | > 100 µM (inactive) | 63.4 µM (inactive) | > 100 µM (inactive) | > 100 µM (inactive) | – | > 100 µM (inactive) | 28.8 µM (inactive) | > 100 µM (inactive) | > 100 µM (inactive) | 69 µM (inactive) | > 100 µM (inactive) | > 100 µM (inactive) | > 100 µM (inactive) | 41.1 µM (inactive) | > 100 µM (inactive)
11 | O=C(O)CCC1c2[nH]c3ccccc3c2CCN1Cc1ccccc1 (stereo not drawn) | > 100 µM (inactive) | > 100 µM (inactive) | > 100 µM (inactive) | > 100 µM (inactive) | > 100 µM (inactive) | > 100 µM (inactive) | > 100 µM (inactive) | > 100 µM (inactive) | > 100 µM (inactive) | > 100 µM (inactive) | > 100 µM (inactive) | > 100 µM (inactive) | > 100 µM (inactive) | > 100 µM (inactive) | > 100 µM (inactive)
12 | O=C(O)CCSC(=O)Nc1ccccc1F | > 100 µM (inactive) | > 100 µM (inactive) | > 100 µM (inactive) | > 100 µM (inactive) | > 100 µM (inactive) | > 100 µM (inactive) | – | – | > 100 µM (inactive) | – | > 100 µM (inactive) | > 100 µM (inactive) | > 100 µM (inactive) | – | > 100 µM (inactive)
13 | Cc1ccc2oc(=O)cc(CC(=O)O)c2c1 | > 100 µM (inactive) | > 100 µM (inactive) | > 100 µM (inactive) | > 100 µM (inactive) | > 100 µM (inactive) | > 100 µM (inactive) | > 100 µM (inactive) | > 100 µM (inactive) | > 100 µM (inactive) | > 100 µM (inactive) | > 100 µM (inactive) | > 100 µM (inactive) | > 100 µM (inactive) | – | > 100 µM (inactive)
14 | CCCCCCCCC1C(C)c2c([nH]c3ccccc23)C2C(=O)N(c3ccccc3)C(=O)C21 (stereo not drawn) | – | 3.9 µM (inactive) | – | 3.82 µM (inactive) | 4.3 µM (inactive) | 17.3 µM (inactive) | 16.3 µM (inactive) | 28.7 µM (inactive) | 11.4 µM (inactive) | 19 µM (inactive) | 14.8 µM (inactive) | 20.1 µM (inactive) | 8.53 µM (inactive) | > 10 µM (inactive) | 14 µM (inactive)
15 | CC12OC3(C)OC(=O)C(c4ccccc4)(O1)C3(C)O2 (stereo not drawn) | > 100 µM (inactive) | > 100 µM (inactive) | > 100 µM (inactive) | – | > 100 µM (inactive) | > 100 µM (inactive) | > 100 µM (inactive) | > 100 µM (inactive) | > 100 µM (inactive) | > 100 µM (inactive) | > 100 µM (inactive) | > 100 µM (inactive) | > 100 µM (inactive) | > 100 µM (inactive) | > 100 µM (inactive)
16 | CC12CCC3(OCCO3)C(OC(=O)c3ccccc3)=C1CCC21OCCO1 (stereo not drawn) | 63.1 µM (inactive) | – | > 100 µM (inactive) | > 100 µM (inactive) | > 100 µM (inactive) | > 100 µM (inactive) | > 100 µM (inactive) | > 100 µM (inactive) | > 100 µM (inactive) | > 100 µM (inactive) | > 100 µM (inactive) | > 100 µM (inactive) | > 100 µM (inactive) | > 100 µM (inactive) | > 100 µM (inactive)
17 | O=C1c2ccccc2CC1C1(O)C(=O)Nc2ccccc21 (stereo not drawn) | > 100 µM (inactive) | > 100 µM (inactive) | > 100 µM (inactive) | > 100 µM (inactive) | > 100 µM (inactive) | > 100 µM (inactive) | > 100 µM (inactive) | > 100 µM (inactive) | > 100 µM (inactive) | 87.3 µM (inactive) | > 100 µM (inactive) | > 100 µM (inactive) | – | > 100 µM (inactive) | > 100 µM (inactive)
18 | O=C(CC(=O)c1cccc([N+](=O)[O-])c1)C(=O)Nc1nc([N+](=O)[O-])cs1 | > 100 µM (inactive) | 94.8 µM (inactive) | > 100 µM (inactive) | > 100 µM (inactive) | 0.0307 µM (active) | > 100 µM (inactive) | > 100 µM (inactive) | > 100 µM (inactive) | > 100 µM (inactive) | – | > 100 µM (inactive) | > 100 µM (inactive) | > 100 µM (inactive) | > 100 µM (inactive) | > 100 µM (inactive)
19 | O=c1[nH]c2cc([N+](=O)[O-])ccc2nc1/C(=N\NO)C(O)c1ccc([N+](=O)[O-])cc1 (stereo not drawn) | > 100 µM (inactive) | > 100 µM (inactive) | 85.1 µM (inactive) | > 100 µM (inactive) | > 100 µM (inactive) | 31.3 µM (inactive) | > 100 µM (inactive) | > 100 µM (inactive) | 98.9 µM (inactive) | > 100 µM (inactive) | > 100 µM (inactive) | – | > 100 µM (inactive) | > 100 µM (inactive) | > 100 µM (inactive)
